Data published in patent US20240285634A1, “COMPOUND AND METHOD FOR TREATING CHEMOTHERAPY-ASSOCIATED GASTROINTESTINAL SIDE EFFECTS” (ONQUALITY PHARMACEUTICALS CHINA LTD., priority 2021, published 2024).

Tests used:
[1] = tested on: Chemotherapeutic agent-caused diarrhea models of Balb/c mice; test: Relieving effect on diarrhea caused by a chemotherapeutic agent (Examples 1-201); type: in vivo
Text: Construction of mouse animal models: Chemotherapeutic agent-caused diarrhea models of Balb/c mice were constructed according to the administration mode and frequency of the chemotherapeutic agent as shown in Table 3. After administration for several days, mice developed different extents of diarrhea symptoms (as shown in FIG. 1), which were similar to the conditions in human. Thus, chemotherapeutic agent-caused diarrhea models of mice are very good models to mimic diarrhea in human caused by the chemotherapeutic agent.
Balb/c mice were fed for 1 week, and then divided into groups. The experiment was divided into a control group, a chemotherapeutic agent group, and a group of the compound as shown in Formula I, each of which comprised 10 mice, to perform the administration experiment, for which the administration dosage, mode, time and frequency were shown in Table 3. The control group: being injected or intragastrically administered with the same solvent as that used in the group of the compound as shown in Formula I (the injection mode and time were shown in Table 3), and then being injected or intragastrically administered with the same solvent as that used in the chemotherapeutic agent group (the administration mode was shown in Table 3); the chemotherapeutic agent group: being injected or intragastrically administered with the same solvent as that used in the group of the compound as shown in Formula I (the administration mode and time were shown in Table 3), and then being injected or intragastrically administered with the chemotherapeutic agent (the type, administration mode and dosage were shown in Table 3); the group of the compound as shown in Formula I: being injected or intragastrically administered with the compound as shown in Formula I (the administration mode and time were shown in Table 3), and then being administered with the chemotherapeutic agent (the administration mode and dosage were shown in Table 3).
The scoring of diarrhea can refer to the method of Akinobu Kurita (Cancer Chemother Pharmacol 2000; 46:211-20.), Grade 0: normal feces; Grade 1: mild diarrhea, the stools is slightly wet and soft; Grade 2: moderate diarrhea, loose stools and mild perianal contamination; Grade 3: severe diarrhea, watery stools and accompanied by severe perianal staining (see FIG. 1). It is regarded as effective remission when the diarrhea grading of mice in the group of the compound as shown in Formula I is reduced compared with the average diarrhea grading of mice in the chemotherapeutic agent group.
The diarrhea grading of mice was observed and recorded every day. At the end of the experiment, the number of mice in the group of the compound as shown in Formula I whose diarrhea grading was lower than that of mice in the chemotherapeutic agent group was recorded. Table 3 lists various animal experiment combinations of chemotherapeutic agents and the compound as shown in Formula I, as well as the corresponding experimental results. (Relative remission rate %=the number of mice in the group of the compound as shown in Formula I whose diarrhea has been effectively relieved/the total number of mice in the group of the compound as shown in Formula I*100%. The establishment rate of diarrhea model in the chemotherapeutic agent group was 50%-70%, that is, about 5-7 of 10 mice developed diarrhea during the experiment, and there were cases of individual mice death or not developing diarrhea.)

[2] = tested on: Balb/c mice, constipation caused by continuous administration of a chemotherapeutic agent; test: Relieving effect on constipation caused by the continuous administration of a chemotherapeutic agent (Examples 385-405); type: in vivo
Text: Balb/c mice were fed for 1 week, and then divided into groups. The experiment was divided into a control group, a chemotherapeutic agent group, and a group of the compound as shown in Formula I, each of which comprised 10 mice, to perform the administration experiment, for which the administration dosage, mode, time and frequency were shown in Table 6. The control group: being injected or intragastrically administered with the same solvent as that used in the group of the compound as shown in Formula I (the administration mode and time were shown in Table 6), and then being injected or intragastrically administered with the same solvent as that used in the group of the compound as shown in Formula I (the administration mode was shown in Table 6); the chemotherapeutic agent group: being injected or intragastrically administered with the same solvent as that used in the group of the compound as shown in Formula I (the administration mode and time were shown in Table 6), and then being injected or intragastrically administered with the chemotherapeutic agent (the type, administration mode, time and dosage were shown in Table 6); the group of the compound as shown in Formula I: being injected or intragastrically administered with the compound as shown in Formula I (the administration mode and time were shown in Table 6), and then being administered with the chemotherapeutic agent (the type, administration mode, time and dosage were shown in Table 6).
The feces reduction rate was calculated with reference to the method of Ji Eun Kim (Lab Anim Res. 2016 December; 32(4): 231-240.). Feces reduction rate (%)=(the control group−the chemotherapeutic agent group or the group of the compound as shown in Formula I)/the control group*100%
It is regarded as effective remission when the feces reduction rate of mice in the group of the compound as shown in Formula I is reduced compared with that in the chemotherapeutic agent group.
The feces amount of mice within 3 hours was observed and recorded every day. At the end of the experiment, the number of mice in the group of the compound as shown in Formula I whose feces reduction rate was lower than that of mice in the chemotherapeutic agent group was recorded. Table 6 lists various animal experiment combinations of chemotherapeutic agents and the compound as shown in Formula I, as well as the corresponding experimental results.

CN1CCN(c2ccc(Nc3ncc4cc5n(c4n3)C3(CCCCC3)CNC5=O)nc2)CC1 [Compound I, Trilaciclib]
Relative remission rate ([1]; Ex 166, Fluorouracil 50 + oxaliplatin 5 + irinotecan 50 + tetrahydrofolic acid 90 mg/kg intraperitoneal single, compound 150 mg/kg oral single 12 h before, cycle 7 days): 40% | Relative remission rate ([1]; Ex 167, Fluorouracil 50 + oxaliplatin 5 + irinotecan 50 + tetrahydrofolic acid 90 mg/kg intraperitoneal single, compound 150 mg/kg oral single 24 h before, cycle 7 days): 20% | Relative remission rate ([1]; Ex 168, Fluorouracil 50 + oxaliplatin 5 + irinotecan 50 + tetrahydrofolic acid 90 mg/kg intraperitoneal single, compound 150 mg/kg oral single 0.5 h before, cycle 7 days): 40% | Relative remission rate ([1]; Ex 169, Fluorouracil 50 + oxaliplatin 5 + irinotecan 50 + tetrahydrofolic acid 90 mg/kg intraperitoneal single, compound 150 mg/kg oral single 4 h before, cycle 7 days): 60% | Relative remission rate ([1]; Ex 170, Fluorouracil 50 + oxaliplatin 5 + irinotecan 50 + tetrahydrofolic acid 90 mg/kg intraperitoneal single, compound 150 mg/kg oral single 8 h before, cycle 7 days): 80% | Relative remission rate ([1]; Ex 171, Fluorouracil 50 + oxaliplatin 5 + irinotecan 50 + tetrahydrofolic acid 90 mg/kg intraperitoneal single, compound 150 mg/kg oral single 12 h before, cycle 7 days): 40% | Relative remission rate ([1]; Ex 172, Fluorouracil 50 + oxaliplatin 5 + irinotecan 50 + tetrahydrofolic acid 90 mg/kg intraperitoneal single, compound 150 mg/kg oral single 24 h before, cycle 7 days): 20% | Relative remission rate ([1]; Ex 190, Fluorouracil 100 + oxaliplatin 10 + irinotecan 200 + tetrahydrofolic acid 100 mg/kg oral single, compound 100 mg/kg subcutaneous single 1 h before, cycle 7 days): 60% | Relative remission rate ([1]; Ex 191, Fluorouracil 100 + oxaliplatin 10 + irinotecan 200 + tetrahydrofolic acid 100 mg/kg oral single, compound 100 mg/kg subcutaneous single 2 h before, cycle 7 days): 50% | Relative remission rate ([1]; Ex 192, Fluorouracil 100 + oxaliplatin 10 + irinotecan 200 + tetrahydrofolic acid 100 mg/kg oral single, compound 100 mg/kg subcutaneous single 4 h before, cycle 7 days): 30% | Relative remission rate ([1]; Ex 193, Fluorouracil 100 + oxaliplatin 10 + irinotecan 200 + tetrahydrofolic acid 100 mg/kg oral single, compound 100 mg/kg subcutaneous single 6 h before, cycle 7 days): 30% | Relative remission rate ([1]; Ex 196, Gemcitabine (GEM) 120 mg/kg intraperitoneal single, compound 100 mg/kg oral single 12 h before, cycle 8 days): 50% | diarrhea gradings compared with the chemotherapeutic agent group ([1]; administered before the chemotherapeutic agent, Table 3 and FIG. 2): relieved to different degrees | Relative remission rate (%) ([2]; Example 385, Fluorouracil (5-Fu) 100 mg/kg intraperitoneal injection once a day for 3 days, compound 100 mg/kg intravenous injection once a day for 3 days, 0.5 h before the chemotherapeutic agent, experimental cycle 7 days): 70% | Relative remission rate (%) ([2]; Example 386, Fluorouracil (5-Fu) 100 mg/kg intraperitoneal injection once a day for 3 days, compound 100 mg/kg intravenous injection once a day for 3 days, 4 h before the chemotherapeutic agent, experimental cycle 7 days): 50% | Relative remission rate (%) ([2]; Example 387, Fluorouracil (5-Fu) 100 mg/kg intraperitoneal injection once a day for 3 days, compound 100 mg/kg intravenous injection once a day for 3 days, 6 h before the chemotherapeutic agent, experimental cycle 7 days): 40% | Relative remission rate (%) ([2]; Example 388, Fluorouracil (5-Fu) 100 mg/kg intraperitoneal injection once a day for 3 days, compound 100 mg/kg intravenous injection once a day for 3 days, 8 h before the chemotherapeutic agent, experimental cycle 7 days): 30% | Relative remission rate (%) ([2]; Example 389, Fluorouracil (5-Fu) 100 mg/kg intraperitoneal injection once a day for 5 days, compound 100 mg/kg intraperitoneal injection once a day for 5 days, 0.5 h before the chemotherapeutic agent, experimental cycle 9 days): 60% | Relative remission rate (%) ([2]; Example 390, Fluorouracil (5-Fu) 100 mg/kg intraperitoneal injection once a day for 5 days, compound 100 mg/kg intraperitoneal injection once a day for 5 days, 12 h before the chemotherapeutic agent, experimental cycle 9 days): 30% | Relative remission rate (%) ([2]; Example 391, Fluorouracil (5-Fu) 100 mg/kg intraperitoneal injection once a day for 5 days, compound 100 mg/kg intraperitoneal injection once a day for 5 days, 20 h before the chemotherapeutic agent, experimental cycle 9 days): 10% | Relative remission rate (%) ([2]; Example 392, Fluorouracil (5-Fu) 100 mg/kg intraperitoneal injection once a day for 5 days, compound 100 mg/kg intraperitoneal injection once a day for 5 days, 24 h before the chemotherapeutic agent, experimental cycle 9 days): 10% | Relative remission rate (%) ([2]; Example 396, Fluorouracil (5-Fu) 100 mg/kg intravenous injection once a day for 3 days, compound 100 mg/kg oral administration once a day for 3 days, 4 h before the chemotherapeutic agent, experimental cycle 7 days): 40% | Relative remission rate (%) ([2]; Example 402, Fluorouracil (5-Fu) 100 mg/kg intraperitoneal injection once a day for 7 days, compound 125 mg/kg intraperitoneal injection once a day for 7 days, 2 h before the chemotherapeutic agent, experimental cycle 10 days): 10% | Relative remission rate (%) ([2]; Example 403, Fluorouracil (5-Fu) 100 mg/kg intraperitoneal injection once a day for 7 days, compound 125 mg/kg intraperitoneal injection once a day for 7 days, 4 h before the chemotherapeutic agent, experimental cycle 10 days): 10% | Relative remission rate (%) ([2]; Example 404, Fluorouracil (5-Fu) 100 mg/kg intraperitoneal injection once a day for 7 days, compound 125 mg/kg intraperitoneal injection once a day for 7 days, 6 h before the chemotherapeutic agent, experimental cycle 10 days): 10% | Relative remission rate (%) ([2]; Example 405, Fluorouracil (5-Fu) 100 mg/kg intraperitoneal injection once a day for 7 days, compound 125 mg/kg intraperitoneal injection once a day for 7 days, 8 h before the chemotherapeutic agent, experimental cycle 10 days): 0% | relieving effects on constipation ([2]; continuous administration of fluorouracil for less than 7 days): significant relieving effects | relieving effects on constipation ([2]; continuous administration of the chemotherapeutic agent for 7 days or less): have relieving effects
